Target: KRas (Homo sapiens, UniProt P01116, G12C)
Assay: KRas degradation in NCI-H2030 cells by Western blot, normalized to GAPDH (data of Table 14)
Type: cell-based
Parameters: host or cells: NCI-H2030
Conditions: for Dmax: NCI-H2030
Summary of the method: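 Readout: GAPDH-normalized KRas immunoblot signal, expressed as percent degradation versus 0.1% DMSO vehicle. Treatment: 0.3, 1, 3 μM after 24 h starvation; 24 h (VHL-based) or 72 h (others).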

| Compound | Percent Degradation at Indicated Concentration (μM) (H2030 cells, 0.3 μM) | Percent Degradation at Indicated Concentration (μM) (H2030 cells, 1 μM) | Percent Degradation at Indicated Concentration (μM) (H2030 cells, 3 μM) | Percent Degradation at Indicated Concentration (μM): 0.3 (H2030 cells, 0.3 μM) | Percent Degradation at Indicated Concentration (μM): 1 (H2030 cells, 1 μM) | Percent Degradation at Indicated Concentration (μM): 3 (H2030 cells, 3 μM) | Dmax (H2030 cells) | Percent Degradation at Indicated Concentration (μM) (H2030, 0.3 μM) | Percent Degradation at Indicated Concentration (μM) (H2030, 1 μM) | Percent Degradation at Indicated Concentration (μM) (H2030, 3 μM) | Dmax |
| --- | --- | --- | --- | --- | --- | --- | --- | --- | --- | --- | --- |
| C=CC(=O)N1CCN(c2nc(O[C@H](C)CN3CCC(OCCOCCOCCOc4ccc5c(c4)C(=O)N(C4CCC(=O)NC4=O)C5=O)CC3)nc3c2CCN(c2cc(O)cc4ccccc24)C3)CC1 (stereo partly drawn) [compound 418, 5-(2-(2-(2-((1-((R)-2-((4-(4-acryloylpiperazin-1-yl)-7-(3-hydroxynaphthalen-1-yl)-5,6,7,8-tetrahydropyrido[3,4-d]pyrimidin-2-yl)oxy)propyl)piperidin-4-yl)oxy)ethoxy)ethoxy)ethoxy)-2-(2,6-dioxopiperidin-3-yl)isoindoline-1,3-dione] | C (Percent Degradation: C ≤ 35) | C (Percent Degradation: C ≤ 35) | C (Percent Degradation: C ≤ 35) |  |  |  |  |  |  |  |  |
| CCC(=O)N1CCN(c2nc(NCCC(=O)N(C)CCOCCOCCOCCOCCNc3cccc4c3C(=O)N(C3CCC(=O)NC3=O)C4=O)nc3c(F)c(-c4cc(O)cc5ccccc45)c(Cl)cc23)CC1 (centres unmarked) [compound 45, 3-((6-chloro-8-fluoro-7-(3-hydroxynaphthalen-1-yl)-4-(4-propionylpiperazin-1-yl)quinazolin-2-yl)amino)-N-(14-((2-(2,6-dioxopiperidin-3-yl)-1,3-dioxoisoindolin-4-yl)amino)-3,6,9,12-tetraoxatetradecyl)-N-methylpropanamide] |  |  |  | C (C ≤ 35) | C (C ≤ 35) | C (C ≤ 35) | ≤ 35% |  |  |  |  |
| CCC(=O)N1CCN(c2nc(NCCC(=O)N(C)CCOCCOCCOCCOCCOCC(=O)N[C@H](C(=O)N3C[C@H](O)C[C@H]3C(=O)N[C@@H](C)c3ccc(-c4scnc4C)cc3)C(C)(C)C)nc3c(F)c(-c4cc(O)cc5ccccc45)c(Cl)cc23)CC1 [compound 190, (2S,4R)-1-((2S)-2-(tert-butyl)-24-((6-chloro-8-fluoro-7-(3-hydroxynaphthalen-1-yl)-4-(4-propionylpiperazin-1-yl)quinazolin-2-yl)amino)-21-methyl-4,22-dioxo-6,9,12,15,18-pentaoxa-3,21-diazatetracosanoyl)-4-hydroxy-N-((S)-1-(4-(4-methylthiazol-5-yl)phenyl)ethyl)pyrrolidine-2-carboxamide] |  |  |  | C (C ≤ 35) | C (C ≤ 35) | C (C ≤ 35) | ≤ 35% |  |  |  |  |
| C=CC(=O)N1CCN(c2nc(NCCC(=O)N(C)CCOCCOCCOCCOc3ccc4c(c3)C(=O)N(C3CCC(=O)NC3=O)C4=O)nc3c(F)c(-c4c(O)cccc4F)c(Cl)cc23)CC1 [compound 73, 3-(((S)-4-(4-acryloylpiperazin-1-yl)-6-chloro-8-fluoro-7-(2-fluoro-6-hydroxyphenyl)quinazolin-2-yl)amino)-N-(2-(2-(2-(2-((2-(2,6-dioxopiperidin-3-yl)-1,3-dioxoisoindolin-5-yl)oxy)ethoxy)ethoxy)ethoxy)ethyl)-N-methylpropanamide] |  |  |  |  |  |  |  | C (Percent Degradation: C ≤ 35) | C (Percent Degradation: C ≤ 35) | C (Percent Degradation: C ≤ 35) | ≤ 35% |
| CCC(=O)N1CCN(c2nc(NCCC(=O)N(C)CCOCCOCCOCCNc3cccc4c3C(=O)N(C3CCC(=O)NC3=O)C4=O)nc3c(F)c(-c4cc(O)cc5ccccc45)c(Cl)cc23)CC1 (centres unmarked) [compound 44] |  |  |  | C (C ≤ 35) | C (C ≤ 35) | C (C ≤ 35) | ≤ 35% |  |  |  |  |
| C=CC(=O)N1CCN(c2nc(NCCC(=O)N(C)CCOc3cc(-c4scnc4C)ccc3CNC(=O)[C@@H]3C[C@@H](O)CN3C(=O)[C@H](c3cc(C)no3)C(C)C)nc3c(F)c(-c4cc(O)cc5ccccc45)c(Cl)cc23)CC1 [compound 338, (2S,4R)-N-(2-(2-(3-((4-(4-acryloylpiperazin-1-yl)-6-chloro-8-fluoro-7-(3-hydroxynaphthalen-1-yl)quinazolin-2-yl)amino)-N-methylpropanamido)ethoxy)-4-(4-methylthiazol-5-yl)benzyl)-4-hydroxy-1-((S)-3-methyl-2-(3-methylisoxazol-5-yl)butanoyl)pyrrolidine-2-carboxamide] |  |  |  |  |  |  |  | C (Percent Degradation: C ≤ 35) | C (Percent Degradation: C ≤ 35) | C (Percent Degradation: C ≤ 35) | ≤ 35% |
| C=CC(=O)N1CCN(c2nc(NCCC(=O)N(C)CCOCCOCCOCCOCCOCC(=O)N[C@H](C(=O)N3C[C@H](O)C[C@H]3C(=O)N[C@@H](C)c3ccc(-c4scnc4C)cc3)C(C)(C)C)nc3c(F)c(-c4c(O)cccc4F)c(Cl)cc23)CC1 [compound 214, (2S,4R)-1-((S)-24-(((R)-4-(4-acryloylpiperazin-1-yl)-6-chloro-8-fluoro-7-(2-fluoro-6-hydroxyphenyl)quinazolin-2-yl)amino)-2-(tert-butyl)-21-methyl-4,22-dioxo-6,9,12,15,18-pentaoxa-3,21-diazatetracosanoyl)-4-hydroxy-N-((S)-1-(4-(4-methylthiazol-5-yl)phenyl)ethyl)pyrrolidine-2-carboxamide] |  |  |  |  |  |  |  | C (Percent Degradation: C ≤ 35) | C (Percent Degradation: C ≤ 35) | C (Percent Degradation: C ≤ 35) | ≤ 35% |
| C=CC(=O)N1CCN(c2nc(NCCC(=O)N(C)CCOc3ccc4c(c3)CN(C3CCC(=O)NC3=O)C4=O)nc3c(F)c(-c4cc(O)cc5ccccc45)c(Cl)cc23)CC1 (centres unmarked) [compound 64, 3-((4-(4-acryloylpiperazin-1-yl)-6-chloro-8-fluoro-7-(3-hydroxynaphthalen-1-yl)quinazolin-2-yl)amino)-N-(2-((2-(2,6-dioxopiperidin-3-yl)-1-oxoisoindolin-5-yl)oxy)ethyl)-N-methylpropanamide] |  |  |  | C (C ≤ 35) | C (C ≤ 35) | C (C ≤ 35) | ≤ 35% |  |  |  |  |
| C=CC(=O)N1CCN(c2nc(NCCC(=O)N(C)CCOc3ccc4c(c3)C(=O)N(C3CCC(=O)NC3=O)C4=O)nc3c(F)c(-c4cc(O)cc5ccccc45)c(Cl)cc23)CC1 (centres unmarked) [compound 467, 3-((4-(4-acryloylpiperazin-1-yl)-6-chloro-8-fluoro-7-(3-hydroxynaphthalen-1-yl)quinazolin-2-yl)amino)-N-(2-((2-(2,6-dioxopiperidin-3-yl)-1,3-dioxoisoindolin-5-yl)oxy)ethyl)-N-methylpropanamide] |  |  |  |  |  |  |  | C (Percent Degradation: C ≤ 35) | C (Percent Degradation: C ≤ 35) | C (Percent Degradation: C ≤ 35) | ≤ 35% |
| C=CC(=O)N1CCN(c2nc(NCCC(=O)N(C)CCOCCOCCOCCOCC(=O)N[C@H](C(=O)N3C[C@@H](O)C[C@H]3C(=O)N[C@@H](C)c3ccc(-c4scnc4C)cc3)C(C)(C)C)nc3c(F)c(-c4cc(O)cc5ccccc45)c(Cl)cc23)CC1 [compound 199, (2S,4S)-1-((2S)-21-((4-(4-acryloylpiperazin-1-yl)-6-chloro-8-fluoro-7-(3-hydroxynaphthalen-1-yl)quinazolin-2-yl)amino)-2-(tert-butyl)-18-methyl-4,19-dioxo-6,9,12,15-tetraoxa-3,18-diazahenicosanoyl)-4-hydroxy-N-((S)-1-(4-(4-methylthiazol-5-yl)phenyl)ethyl)pyrrolidine-2-carboxamide] |  |  |  |  |  |  |  | C (Percent Degradation: C ≤ 35) | C (Percent Degradation: C ≤ 35) | C (Percent Degradation: C ≤ 35) | ≤ 35% |
| C=CC(=O)N1CCN(c2nc(OCCCN(C)CCOCCOCCOCCOCC(=O)N[C@H](C(=O)N3C[C@H](O)C[C@H]3C(=O)N[C@@H](C)c3ccc(-c4scnc4C)cc3)C(C)(C)C)nc3c(F)c(-c4cc(O)cc5ccccc45)c(Cl)cc23)CC1 [compound 497, (2S,4R)-1-((2S)-21-((4-(4-acryloylpiperazin-1-yl)-6-chloro-8-fluoro-7-(3-hydroxynaphthalen-1-yl)quinazolin-2-yl)oxy)-2-(tert-butyl)-18-methyl-4-oxo-6,9,12,15-tetraoxa-3,18-diazahenicosanoyl)-4-hydroxy-N-((S)-1-(4-(4-methylthiazol-5-yl)phenyl)ethyl)pyrrolidine-2 carboxamide] |  |  |  |  |  |  |  | C (Percent Degradation: C ≤ 35) | C (Percent Degradation: C ≤ 35) | C (Percent Degradation: C ≤ 35) | ≤ 35% |
| Cc1ncsc1-c1ccc([C@H](C)NC(=O)[C@@H]2C[C@@H](O)CN2C(=O)[C@@H](NC(=O)COCCOCCN(C)C(=O)CCNc2nc(N3CCN(C(N)=O)CC3)c3cc(Cl)c(-c4c(O)cccc4F)c(F)c3n2)C(C)(C)C)cc1 (atropisomer, axis not shown) [compound 227, 4-((S)-6-chloro-8-fluoro-7-(2-fluoro-6-hydroxyphenyl)-2-(((S)-14-((2S,4R)-4-hydroxy-2-(((S)-1-(4-(4-methylthiazol-5-yl)phenyl)ethyl)carbamoyl)pyrrolidine-1-carbonyl)-4,15,15-trimethyl-3,12-dioxo-7,10-dioxa-4,13-diazahexadecyl)amino)quinazolin-4-yl)piperazine-1-carboxamide] |  |  |  |  |  |  |  | C (Percent Degradation: C ≤ 35) | C (Percent Degradation: C ≤ 35) | C (Percent Degradation: C ≤ 35) | ≤ 35% |

Source: patent publication US12552783B2, “Modulators of proteolysis and associated methods of use” (Arvinas Operations, Inc., priority 2018, dated 2026)
